Results as given in patent US12018045B2, “17-beta-hydroxywithanolides and use thereof in treating cancer” (The United States of America, as represented by the …, priority 2018, dated 2024).

Columns and labels:
SK-MEL-28 melanoma cells = test: Killing of SK-MEL-28 melanoma cells by activated human T cells (crystal violet); type: cell-based; settings: PCC 500 nM 24 h before T cells
Procedure: 6 well costar plates were precoated with anti-CD3 (1 ug/ml) in PBS overnight at 4° C. Wells were washed with PBS then blocked with RPMI+10% FBS for 30 min before adding anti-CD28 (0.2 ug/ml) and purified T cells.
T cells were isolated from human PBMCs using Pan T cell isolation kit (Miltenyi Biotech) as per manufacturers protocol, added to the costar plates and incubated at 37° C. 24 hours later activated T cells were used as effectors.
SK-MEL-28 cells (200,000) were added to costar 6 plates. After 24 h PCC (500 nM) or control DMSO was added, followed 24 h later by addition of activated T cells at different target to effector ratios. After a further 24 hours plates were washed and adherent melanoma cells were fixed with methanol and stained with crystal violet.
SK-MEL-28 melanoma cells were treated with media, compound 1, or compound 1+α-TNFα and then incubated with the activated human T cells.

[1] = system: human fibroblasts HFF cells; test: Growth inhibition of human fibroblasts HFF cells; type: cell-based
Procedure: (§1) LNCaP and 22Rv1 prostate cancer cells and human fibroblasts HFF cells were treated with compounds 1, 2, 3, and 4.

[2] = system: LNCaP prostate cancer cells; test: Growth inhibition of LNCaP prostate cancer cells; type: cell-based; settings: Homo sapiens
Procedure: as §1

[3] = system: ACHN, SN12C, Caki-2, TK-10, and UO-31 renal carcinoma cells; test: Sensitization of renal carcinoma cell lines to TRAIL apoptosis, comparison with IAP and Bcl-2 antagonists; type: cell-based, human; settings: 5 renal carcinomas; compared to Birinapant, GDC-0152, LCL-161, ABT-199 and ABT-737
Procedure: ACHN, S[…], Caki-2, TK-10, and UO-31 cells were treated with compound 1, the IAP antagonists Birinapant, GDC-0152, or LCL-161 and the Bcl-2 antagonists ABT-199 and ABT-737 in the presence and absence of TRAIL.

cFLIP [4] = test: cFLIP levels in LNCaP prostate cancer cells (Western blot); type: cell-based; settings: 125 nM, 250 nM, or 500 nM
Procedure: LNCaP prostate cancer cells were treated with 125 nM, 250 nM, or 500 nM of compounds 1 or 3.

cFLIP [5] = test: cFLIP levels in 22Rv1 prostate cancer cells (Western blot); type: cell-based; settings: 22Rv1 cells; 125 nM, 250 nM, or 500 nM
Procedure: 22Rv1 prostate cancer cells were treated with 125 nM, 250 nM, or 500 nM of compounds 1 or 3.

[6] = system: 888, 1383, and Baldwin renal melanoma cells; test: Sensitization of 888, 1383 and Baldwin melanoma cells to TRAIL apoptosis; type: cell-based, human; settings: 888, 1383, Baldwin melanoma cells; compared to Birinapant or ABT-737
Procedure: 888, 1383, and Baldwin renal melanoma cells were treated with compound 1 of compound 3, the Birinapant, or ABT-737 in the presence and absence of TRAIL.

[7] = system: 22Rv1 prostate cancer cells; test: Growth inhibition of 22Rv1 prostate cancer cells; type: cell-based; settings: Homo sapiens
Procedure: as §1

B16F10 melanoma = B16F10 melanoma xenograft model in C57B/6 mice; type: in vivo; settings: intra-tumor twice a week for 3 weeks; versus vehicle and compound 1
Procedure: C57B/6 mice were injected with 5×10^5 B16F10 melanoma cells s.c. Tumors were allowed to grow 8-10 days and then vehicle, compound 1, or compound 3 were injected intra-tumor twice a week for 3 weeks. Tumor growth was monitored until endpoint.

cFLIP [8] = test: cFLIP reduction in ACHN cells (Western blotting); type: cell-based, human; settings: ACHN renal carcinoma cells; 125, 250, 500 nM; 24 h; compared with compound 1
Procedure: This example the effect of compounds 1 and 3 on the reduction of cFLIP in ACHN human carcinoma cells as a function of concentration after 24 exposure to the compounds.
ACHN human renal carcinoma cells were treated with 125 nM, 250 nM, and 500 nM of compounds 1 and 3. After 24 h exposure to the compounds, Western blotting was performed to separate FLIPL and FLIPS, and the results shown in FIG. 3.

cFLIP [9] = test: cFLIP reduction in M14 melanoma cells (Western blotting); type: cell-based, human; settings: 0-500 nM, 24 h, compared with compound 1
Procedure: M14 human melanoma cells were treated with 0, 31.25, 62.5, 125, 250, or 500 nM of compounds 1 and 3. After 24 h, Western blotting was performed to separate cFLIPL, cFLIPS, and GAPDH.

CC(=O)OC[C@]12CC[C@H]3[C@@H](C[C@H]4O[C@]45CC=CC(=O)[C@]35C)[C@]1(O)CC[C@@]2(O)[C@@](C)(O)[C@H]1CC(C)=C(C)C(=O)O1 [Compound 1, Physachenolide C]
killing of human melanoma cells by activated T cells (SK-MEL-28 melanoma cells): enhanced the killing
IC50 [1]: > 2000 nM
IC50 [2]: 37 ± 2 nM
sensitization of TRAIL apoptosis [3]: superior results
cFLIP levels (cFLIP [4]): reduction of cFLIP levels
cFLIP levels (cFLIP [5]): reduction of cFLIP levels
sensitization of TRAIL apoptosis [6]: superior results
IC50 [7]: 48 ± 2 nM

COc1ccc(C(=O)OC[C@]23CC[C@H]4[C@@H](C[C@H]5O[C@]56CC=CC(=O)[C@]46C)[C@]2(O)CC[C@@]3(O)[C@@](C)(O)[C@H]2CC(C)=C(C)C(=O)O2)cc1 [Compound 2]
IC50 [1]: 938 ± 10 nM
IC50 [2]: 18 ± 2 nM
IC50 [7]: 16 ± 4 nM

CC1=C(C)C(=O)O[C@@H]([C@](C)(O)[C@]2(O)CC[C@@]3(O)[C@@H]4C[C@H]5O[C@]56CC=CC(=O)[C@]6(C)[C@H]4CC[C@]23COC(=O)c2ccc(C)o2)C1 [Compound 3, withaperuvin E]
tumor volume (B16F10 melanoma): lowest
cFLIP reduction (cFLIP [8]): elevated activity over compound 1
IC50 [1]: 892 ± 119 nM
IC50 [2]: 14 ± 1 nM
cFLIP reduction (cFLIP [9]): elevated activity over compound 1
cFLIP levels (cFLIP [4]): reduction of cFLIP levels
cFLIP levels (cFLIP [5]): reduction of cFLIP levels
sensitization of TRAIL apoptosis [6]: superior results
IC50 [7]: 10 ± 2 nM

CC1=C(C)C(=O)O[C@@H]([C@](C)(O)[C@]2(O)CC[C@@]3(O)[C@@H]4C[C@H]5O[C@]56CC=CC(=O)[C@]6(C)[C@H]4CC[C@]23COC(=O)c2ccc(C)nc2)C1 [Compound 4]
IC50 [1]: 945 ± 92 nM
IC50 [2]: 17 ± 8 nM
IC50 [7]: 17 ± 1 nM
